Laboratory results reported in patent publication US5989555A, “Extracts of Larrea tridentata having antiviral activity and their use for treating viral infections” (priority 1996, dated 1999).
Values joined by “and” are separate entries in the source; they are usually repeats but may differ in a detail not shown here. Identical values can stand only once.

What was measured:
[1] = tested on: HIV-LTR; experiment: in vitro HIV gene transcription assay (Hela whole-cell extract, pLTR-1CAT template); assay type: biochemical, HIV-1; settings: for CPM of run off transcription: 329 nt run off, DMSO control 625; for % Transcription (% T): DMSO control = 100
Protocol: This procedure was utilized to test lignans from the creosote bush including Rev.10:7 lignans (FB3 and FB5).
The inhibitory activity of the lignans prepared by the large scale isolation described in FIG. 6 is shown. The activity of the cyclolignans FB3 and FB5 is highlighted. Compounds FB1, FB2 and FB4 were each tested at 100, 120, 140 μg/ml. Rev.10:7 lignans (FB3 and FB5) were tested only at 100, 120 μg/ml.
The DNA used as template was the plasmid pLTR-1CAT, which contains HIV-LTR (-453 to +126) fused to the prokaryotic chloramphenicol acetyltransferase (CAT) gene. Unlabeled nucleoside triphosphates were from Pharmacia, and [α-^32 P]UTP (400 Ci/mmol) from Amersham.
DNA digests were then subjected to twice phenol-chloroform-isoamyl alcohol […] extractions and subsequently precipitated by ethanol. Hela whole-cell extracts (Manley extract) containing the polymerase and the transcription factors was prepared as previously described (Manley et al., Proc. Acad. Sci. USA 77:3855-3859 (1988)).
The transcription assay has been previously described (Bohan et al., Gene Expression 2:391-407 (1992)). Extracts prepared by the method of Manley, described above, (40 μg/reaction) and DNA template (0.4 μg/reaction)were preincubated with 0.4 μl of various concentrations of test compounds for 15 min at 30° C. The in vitro transcription buffer of Manley extract contained 10 mM HEPES (pH 7.9), 50 mM KCl, 0.5 mM EDTA, 1.5 mM […], 6.25 mM MgCl2, and 8.5% glycerol. Unlabeled nucleoside triphosphates and [α-^32 P]UTP (400 Ci/mmol) were mixed and added to the reaction mixture. The final volume of the reaction was brought to 15 μl followed by 1 hour incubation at 30° C. as illustrated in FIG. 9.
The transcription reaction was terminated by addition of 300 μl of stop solution (20 mM tris-HCl (pH 7.8), 150 mM NaCl, and 0.2% SDS), and extracted with equal volume of phenol. RNA in the aqueous phase was precipitated with 2.5 volumes of EtOH and 0.1 volume of 3 M sodium acetate. Following centrifugation, RNA pellets were washed with EtOH, dried and resuspended in 15 μl of denaturation mix containing 50% formamide:50% of 2×TBE, Xylene cyanol and bromophenol blue. The mixture was heated at 90° C. for 3 min, and electrophoresed at 400 V in 4% polyacrylamide (19:1 acrylamide:bisacrylamide) gel containing 7 M urea (prerun at 200 V for 30 min) and 1×TBE. The gel was exposed to Kodak XR-5 film at -70° C. with intensifying screens for autoradiography. Table 4 illustrates the same results in numerical form after radioactivity counts of the 329 nt run off transcription spots.

[2] = tested on: HIV-1 Tat protein; experiment: cells; assay type: cell-based; settings: Table 3, samples run in duplicate, each value mean of two determinations; for inhibition at 10 µg/mL / inhibition at 30 µg/mL: Human immunodeficiency virus 1, COS; for inhibition at 10 µg/mL: read-out: % Inhibition of Tat Transactivation, 10 μg/ml; for inhibition at 30 µg/mL: read-out: % Inhibition of Tat Transactivation, 30 μg/ml
Protocol: […] P. Loeffler and J. P. Behr, Meth. Enzymol. 217:599 (1993)). Cells were incubated for 12-15 hours after transfection before the extract was added at the various concentrations noted. The cultures were incubated for 48 hours, after which 250 μl of the culture supernatant was assayed for SEAP activity as described in Example 4.
The SEAP Assay. The "SEcreted Alkaline Phosphatase" assay for Tat transactivation has been described previously (Berger et al., Gene 66:1-10, 1988; Bohan et al., Gene Expression 2(4):391-407, 1992). The details of the entire procedure for the SEAP inhibition assay as used herein have been described (Gnabre et al. Journal of Chromatography A 719:353-364 (1996)).
The secreted alkaline phosphatase analysis was performed as originally described by Berger et al. In this assay, a DNA expression vector wherein a structural gene encoding a secreted alkaline phosphatase is driven by an enhancer-linked promoter is transfected into target cells. The cells are then exposed to compounds which affect the binding/activation of the transcription regulatory proteins, and the amount of SEAP activity in the medium is measured.
As to the alkaline phosphatase assay, briefly, a 250-μl aliquot was removed from COS cell culture supernatants, heated at 65° C. for 5 minutes to selectively inactivate endogenous phosphatase (SEAP is heat stable) and centrifuged in a microfuge for 2 minutes. […] of 2×SEAP assay buffer (1.0 M diethanolamine, pH 9.8; 0.5 mM MgCl2; 10 mM L-homoarginine) was added to 100-μl aliquot of the samples. The solution was mixed and transferred into a 96-well flat-bottom culture dish (Corning). Twenty μl of pre-warmed substrate solution (120 mM p-nitrophenylphosphate dissolved in 1×SEAP assay buffer) were dispensed with a multipipeter into each well containing the reaction mixture. The A405 of the reaction was read at 5-minute intervals at 37° C. for 60 minutes using an EL340i microplate reader (Bio-tek Instruments, Inc.) with 5-second automatic shakings before each reading. The change in absorbance was plotted against time in the standard assay of SEAP induction. In the drug screening assay, the percent inhibition of SEAP expression was calculated at its 30 min endpoint as follows:
% Inhibition=100-[(CT^+ -C^+)/(CT^- -C^-)]×100
The 3-Magi extract was monitored by SiO2 TLC with cerium sulfate charring, 2% CeSO4 (w/V) in 5.6% H2 SO4 (v/v), and by the SEAP assay for anti Tat-TRS activity. For the SEAP assay, test materials were dissolved in 10% DMSO solution made in calcium-free, magnesium-free PBS (Ca--Mg-free PBS). The suspension was centrifuged and the stock solution (10 mg/ml) was filter-sterilized using a Millex-GS […] filter (Millipore). Appropriate dilutions of the stock solution were prepared in a final DMSO concentration of 0.2% in Ca--Mg-free PBS to obtain the various concentrations of test compounds.
The 3-Magi extract prepared as in Examples 1 and 2 was assayed by the SEAP assay for anti Tat-TRS activity. […] Briefly, a day before DNA transfection, Linbro® 24 flat bottom wells of 17-mm diameter plates were pretreated with 0.5 ml sterile solution of 0.1% gelatin. The plates were kept in a tissue culture hood for 1 hour (all transfection steps were performed in the hood, unless otherwise stated). The gelatin solution was aspirated and the plates were washed with 0.5 ml of Iscove's Modified Delbecco's Medium (IMDM) supplemented with 10% fetal calf serum and antibiotics (complete medium). COS cells were seeded at a density of ≈1.5×10^5 cells per 17-mm plate and incubated in a humidified 95% air/5% CO2 incubator at 37° C. DNA transfection was performed at 50-60% cell confluency.

[3] = 140 μg/ml, estimated from Kodak film of gel after 3 day exposure

| Compound | % Inhibitor (100 - % T) ([1]; 100 μg/ml) [%] | CPM of run off transcription ([1]; 100 μg/ml) [CPM] | % Transcription (% T) ([1]; 100 μg/ml) [%] | % Inhibitor (100 - % T) ([1]; 120 μg/ml) [%] | CPM of run off transcription ([1]; 120 μg/ml) [CPM] | % Transcription (% T) ([1]; 120 μg/ml) [%] | % Inhibition of Tat Transactivation ([2]; 30 μg/ml) | inhibition at 10 µg/mL [2] [%] | inhibition at 30 µg/mL [2] [%] | % Inhibitor (100 - % T) [1, 3] [%] | % Inhibition of Tat Transactivation ([2]; 10 μg/ml) [%] |
| --- | --- | --- | --- | --- | --- | --- | --- | --- | --- | --- | --- |
| C[C@H]1[C@H](c2ccc(O)cc2)c2cc(O)c(O)cc2C[C@H]1C [FB5, 3'-demethoxy-6-O-demethoxylisoguaiacin] | 40 | 373 | 60 | 58 | 264 | 42 | 87% | 63 | 84 | – | – |
| COc1cc(CC(C)C(C)Cc2ccc(O)c(O)c2)ccc1O (stereo not drawn) [FB2, 3'-O-methyl-NDGA] | – | 972 | 155 | 0 | 661 | 106 | – | 75 | 100 | > 90 | 86 |
| 3'-demethoxy-6-dehydroxy-8-O-demethoxylisoguaiacin [FB3] | 73 | 169 | 27 | 91 | 55 | 9 | 69% and 59% | – | – | – | – |
| COc1ccc(C[C@@H](C)[C@@H](C)Cc2ccc(O)c(O)c2)cc1O [FB1, 4'-O-methyl-NDGA] | 0 | 917 | 147 | 0 | 804 | 129 | 99% | 86 | 100 | > 50 | 82 |
